Experimental findings from US11077090B2, “Compounds and compositions and uses thereof” (Sunovion Pharmaceuticals Inc., priority 2016, dated 2021) are described below.

In the assay the test system is compound-treated mice. Kind of assay: Neuropharmacological assay (SmartCube): behavioral activity signature and minimal effective dose. In kind it is in vivo. The settings on record: for minimal effective dose: Mus musculus, ip; for AD: ADHD (probability of activity signature) / AG: analgesic (probability of activity signature) / AX: anxiolytic (probability of activity signature) / CE: cognitive enhancer (probability of activity signature) / DP: anti-depressant (probability of activity signature) / MS: mood stabilizer (probability of activity signature) / PS: anti-psychotic (probability of activity signature) / SD: sedative hypnotic (probability of activity signature) / UN: uncharacterized CNS activity (probability of activity signature): i.p. 15 min before test, most efficacious dose(s). The procedure, abridged: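 Mice dosed i.p. 15 min before test, compound in N-methyl-2-pyrrolidone/PEG/propylene glycol, 3 doses; video-captured behavior matched to reference-drug signatures, giving per-class probabilities at most efficacious dose. MED from doses typically 0.3–30 mpk, defined as lowest dose with ≥50% total activity.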

Where [1] appears, read: MED = dose having 50% or more total activity, read-out: Potency: minimal effective dose (MED), binned.
Where [2] appears, read: MED = dose having 50% or more total activity, read-out: Potency: minimal effective dose (MED).

SMILES strings stand for the structures. Read-outs that look alike come from different tables or passages of the source. A value given as a limit tells only on which side of the number the result lay.

By minimal effective dose is commonly meant the smallest amount tested that counted as effective. Turning to `CCN(C)C(=O)Oc1ccc2c(c1)CO[C@@H](C)[C@H]2N.Cl` [Example 279], the “AD: ADHD (probability of activity signature)” value (shortened to “AD: ADHD”) was “+ (LOQ ≤ + <5%)”, the “AG: analgesic (probability of activity signature)” value (“AG: analgesic” for short) was “+ (LOQ ≤ + <5%)”, the “AX: anxiolytic (probability of activity signature)” value (“AX: anxiolytic” for short) is on record as “+ (LOQ ≤ + <5%)” and the “CE: cognitive enhancer (probability of activity signature)” value (from here on “CE: cognitive enhancer”) is reported as “+ (LOQ ≤ + <5%)”. Moreover, the “DP: anti-depressant (probability of activity signature)” value (from here on “DP: anti-depressant”) is on record as “++ (5% ≤ ++ <25%)”, the “MS: mood stabilizer (probability of activity signature)” value (shortened to “MS: mood stabilizer”) is listed as “+++ (25% ≤ +++ <50%)”, the “PS: anti-psychotic (probability of activity signature)” value (“PS: anti-psychotic” below) is “++ (5% ≤ ++ <25%)” and the “SD: sedative hypnotic (probability of activity signature)” value (“SD: sedative hypnotic” for short) is listed as “++ (5% ≤ ++ <25%)”. In addition, the “UN: uncharacterized CNS activity (probability of activity signature)” value (“UN: uncharacterized CNS activity” for short) was “++ (5% ≤ ++ <25%)”. In addition, the minimal effective dose under setting [1] was 3 to 10 mg/kg.

As for `CC[C@@H]1OCc2ccccc2[C@@H]1NC.Cl` [Example 258], the “AD: ADHD” value is reported as “+ (LOQ ≤ + <5%)”, the “AG: analgesic” value is on record as “+ (LOQ ≤ + <5%)”, the “AX: anxiolytic” value is reported as “+ (LOQ ≤ + <5%)” and the “CE: cognitive enhancer” value is “+ (LOQ ≤ + <5%)”. Besides, the “DP: anti-depressant” value is reported as “++ (5% ≤ ++ <25%)”, the “MS: mood stabilizer” value was “++ (5% ≤ ++ <25%)”, the “PS: anti-psychotic” value is listed as “+ (LOQ ≤ + <5%)” and the “SD: sedative hypnotic” value is on record as “++ (5% ≤ ++ <25%)”. The “UN: uncharacterized CNS activity” value is reported as “+ (LOQ ≤ + <5%)”. Further, the minimal effective dose under setting [1] lay within 3 to 10 mg/kg.

For `Cl.NC1COCc2ccc(Cl)c(Cl)c21` (stereo not drawn) [Example 44, 5,6-Dichloroisochroman-4-amine hydrochloride], the “AD: ADHD” value is reported as “+ (LOQ ≤ + <5%)”, the “AG: analgesic” value is recorded as “++ (5% ≤ ++ <25%)”, the “AX: anxiolytic” value is on record as “+++ (25% ≤ +++ <50%)” and the “CE: cognitive enhancer” value was “++ (5% ≤ ++ <25%)”. Moreover, the “DP: anti-depressant” value was “++ (5% ≤ ++ <25%)”, the “MS: mood stabilizer” value is “+ (LOQ ≤ + <5%)”, the “PS: anti-psychotic” value is “++ (5% ≤ ++ <25%)” and the “SD: sedative hypnotic” value is “++ (5% ≤ ++ <25%)”. The “UN: uncharacterized CNS activity” value is listed as “+++ (25% ≤ +++ <50%)”. In addition, under setting [2], the minimal effective dose was 3 to 10 mg/kg.

In the case of `CC[C@H]1OCc2ccc(F)cc2[C@@H]1N.Cl` [Example 202], the “AD: ADHD” value is recorded as “+ (LOQ ≤ + <5%)”, the “AG: analgesic” value is “++ (5% ≤ ++ <25%)”, the “AX: anxiolytic” value is recorded as “+++ (25% ≤ +++ <50%)” and the “CE: cognitive enhancer” value is on record as “++ (5% ≤ ++ <25%)”. Also, the “DP: anti-depressant” value is reported as “++ (5% ≤ ++ <25%)”, the “MS: mood stabilizer” value is reported as “+ (LOQ ≤ + <5%)”, the “PS: anti-psychotic” value was “++ (5% ≤ ++ <25%)” and the “SD: sedative hypnotic” value is “+ (LOQ ≤ + <5%)”. Moreover, the “UN: uncharacterized CNS activity” value is on record as “++++ (50% ≤ ++++)”. Under setting [1], the minimal effective dose was less than 3 mg/kg.

Take `C[C@@H]1OCc2cc(Cl)ccc2[C@@H]1N.Cl` [Example 93]: the “AD: ADHD” value is reported as “+ (LOQ ≤ + <5%)”, the “AG: analgesic” value was “++ (5% ≤ ++ <25%)”, the “AX: anxiolytic” value was “+++ (25% ≤ +++ <50%)” and the “CE: cognitive enhancer” value is given as “+ (LOQ ≤ + <5%)”. For the same compound, the “DP: anti-depressant” value is given as “++ (5% ≤ ++ <25%)”, the “MS: mood stabilizer” value is on record as “+ (LOQ ≤ + <5%)”, the “PS: anti-psychotic” value is “++ (5% ≤ ++ <25%)” and the “SD: sedative hypnotic” value is on record as “+ (LOQ ≤ + <5%)”. Besides, the “UN: uncharacterized CNS activity” value is recorded as “+ (LOQ ≤ + <5%)”. Under setting [2], the minimal effective dose fell in the range of 10 to 30 mg/kg.

Regarding `Cl.NC1COCc2ccc3c(c21)C1CCC3C1` (stereo not drawn) [Example 51, 2,4,7,8,9,10-Hexahydro-1H-7,10-methanobenzo[f]isochromen-1-amine hydrochloride], the “AD: ADHD” value was “+ (LOQ ≤ + <5%)”, the “AG: analgesic” value is “++ (5% ≤ ++ <25%)”, the “CE: cognitive enhancer” value was “++ (5% ≤ ++ <25%)” and the “MS: mood stabilizer” value is listed as “+ (LOQ ≤ + <5%)”. Also, under setting [2], the minimal effective dose was 3 to 10 mg/kg. Besides, under “hydrochloride”, the “AX: anxiolytic” value is recorded as “++ (5% ≤ ++ <25%)”, the “DP: anti-depressant” value is “++ (5% ≤ ++ <25%)”, the “PS: anti-psychotic” value was “++ (5% ≤ ++ <25%)” and the “SD: sedative hypnotic” value is “+ (LOQ ≤ + <5%)”. Also, under “hydrochloride”, the “UN: uncharacterized CNS activity” value was “++++ (50% ≤ ++++)”.

Regarding `CC(C)c1ccc2c(c1)C(N)COC2.Cl` (stereo not drawn) [Example 8, 6-Isopropylisochroman-4-amine hydrochloride], the “AD: ADHD” value is on record as “+ (LOQ ≤ + <5%)”, the “AG: analgesic” value was “++ (5% ≤ ++ <25%)”, the “AX: anxiolytic” value was “++ (5% ≤ ++ <25%)” and the “CE: cognitive enhancer” value is listed as “++ (5% ≤ ++ <25%)”. Also, the “DP: anti-depressant” value is recorded as “++ (5% ≤ ++ <25%)”, the “MS: mood stabilizer” value is “+ (LOQ ≤ + <5%)”, the “PS: anti-psychotic” value is “++ (5% ≤ ++ <25%)” and the “SD: sedative hypnotic” value is “+++ (25% ≤ +++ <50%)”. Moreover, the “UN: uncharacterized CNS activity” value is “++ (5% ≤ ++ <25%)”. The minimal effective dose under setting [2] lay within 10 to 30 mg/kg.

For `CC[C@H]1OCc2ccccc2[C@@H]1NC.Cl` [Example 259], the “AD: ADHD” value is reported as “+ (LOQ ≤ + <5%)”, the “AG: analgesic” value is listed as “+ (LOQ ≤ + <5%)”, the “AX: anxiolytic” value is reported as “+ (LOQ ≤ + <5%)” and the “CE: cognitive enhancer” value is listed as “+ (LOQ ≤ + <5%)”. Also, the “DP: anti-depressant” value was “++ (5% ≤ ++ <25%)”, the “MS: mood stabilizer” value is given as “+ (LOQ ≤ + <5%)”, the “PS: anti-psychotic” value is given as “+ (LOQ ≤ + <5%)” and the “SD: sedative hypnotic” value is listed as “+++ (25% ≤ +++ <50%)”. The “UN: uncharacterized CNS activity” value is on record as “++ (5% ≤ ++ <25%)”. For the same compound, under setting [1], the minimal effective dose was in the range of 10 to 30 mg/kg.

In the case of `CN[C@H]1COCc2ccc(C)c(C)c21` [Example 144], the “AD: ADHD” value is recorded as “+ (LOQ ≤ + <5%)”, the “AG: analgesic” value is on record as “++ (5% ≤ ++ <25%)”, the “AX: anxiolytic” value was “++ (5% ≤ ++ <25%)” and the “CE: cognitive enhancer” value was “++ (5% ≤ ++ <25%)”. For the same compound, the “DP: anti-depressant” value is given as “++ (5% ≤ ++ <25%)”, the “MS: mood stabilizer” value is given as “+ (LOQ ≤ + <5%)”, the “PS: anti-psychotic” value is recorded as “++ (5% ≤ ++ <25%)” and the “SD: sedative hypnotic” value is reported as “++ (5% ≤ ++ <25%)”. The “UN: uncharacterized CNS activity” value was “+++ (25% ≤ +++ <50%)”. In addition, the minimal effective dose under setting [2] is 3 to 10 mg/kg.

As to `Cc1cccc2c1[C@@H](N)[C@H](C)OC2` (single isomer, unassigned) [Example 168], the “AD: ADHD” value was “+ (LOQ ≤ + <5%)”, the “AG: analgesic” value is “+ (LOQ ≤ + <5%)”, the “AX: anxiolytic” value was “++ (5% ≤ ++ <25%)” and the “CE: cognitive enhancer” value is recorded as “++ (5% ≤ ++ <25%)”. Further, the “DP: anti-depressant” value is “++ (5% ≤ ++ <25%)”, the “MS: mood stabilizer” value is “+ (LOQ ≤ + <5%)”, the “PS: anti-psychotic” value is listed as “+++ (25% ≤ +++ <50%)” and the “SD: sedative hypnotic” value is reported as “+ (LOQ ≤ + <5%)”. For the same compound, the “UN: uncharacterized CNS activity” value was “++++ (50% ≤ ++++)”. Moreover, the minimal effective dose under setting [1] was 3 to 10 mg/kg.

Take `Cl.NC1COCCc2ccc3ccccc3c21` (stereo not drawn) [Example 35]: the “AD: ADHD” value is reported as “+ (LOQ ≤ + <5%)”, the “AG: analgesic” value is on record as “++ (5% ≤ ++ <25%)”, the “AX: anxiolytic” value is given as “+++ (25% ≤ +++ <50%)” and the “CE: cognitive enhancer” value was “++ (5% ≤ ++ <25%)”. Moreover, the “DP: anti-depressant” value is “++ (5% ≤ ++ <25%)”, the “MS: mood stabilizer” value is on record as “+ (LOQ ≤ + <5%)”, the “PS: anti-psychotic” value is recorded as “++ (5% ≤ ++ <25%)” and the “SD: sedative hypnotic” value is “+ (LOQ ≤ + <5%)”. In addition, the “UN: uncharacterized CNS activity” value was “+++ (25% ≤ +++ <50%)”. The “Potency: minimal effective dose (MED)” value (MED = dose having 50% or more total activity) is “B (>3 to 10 mpk)”.

Consider `CC[C@H]1OCc2ccccc2[C@H]1N` (single isomer, unassigned) [Example 192], for which the “AD: ADHD” value is “+ (LOQ ≤ + <5%)”, the “AG: analgesic” value is recorded as “+ (LOQ ≤ + <5%)”, the “AX: anxiolytic” value was “++ (5% ≤ ++ <25%)” and the “CE: cognitive enhancer” value is “++ (5% ≤ ++ <25%)”. In addition, the “DP: anti-depressant” value is on record as “+ (LOQ ≤ + <5%)”, the “MS: mood stabilizer” value is given as “+ (LOQ ≤ + <5%)”, the “PS: anti-psychotic” value is “++ (5% ≤ ++ <25%)” and the “SD: sedative hypnotic” value is reported as “++ (5% ≤ ++ <25%)”. The “UN: uncharacterized CNS activity” value is on record as “++++ (50% ≤ ++++)”. For the same compound, the minimal effective dose under setting [1] is less than 3 mg/kg.
